Test results as given in patent US20260272936A1, “TREATMENT OF CANCER WITH A PARG INHIBITOR” (858 Therapeutics, Inc., priority 2023, published 2026).

Legend:
[1] = test system: HCC1428 breast cancer xenograft; assay: HCC1428 breast cancer CDX model, tumor volume and body weight; assay type: in vivo, BALB/c nude mice; conditions: for % TGI: 25 days
Protocol: Two separate studies were performed. […] Groups of 8 animals each were established by random assignment. Tumor volumes and body weights were measured twice weekly. The tumor volume (TV) in mm^3 was estimated using the formula: TV=a×b^2/2, where a and b are the long and short diameters of a tumor, respectively. For each treatment group, if the mean TV at the end of study was greater than the mean tumor volume at treatment initiation, then tumor growth inhibition (TGI) was calculated using the formula: % TGI=[1-(Mean TreatedTVFinal−Mean Treated TVInitial)/(Mean Vehicle TVFinal−Mean VehicleTVInitial)]×100. If the mean TV of the treatment group at the end of study was less than the mean tumor volume at treatment initiation, then tumor regression (REG) was calculated using the formula: % REG=[(Mean Treated TVInitial−Mean Treated TVFinal)/Mean TreatedTVInitial]×100. Statistical analysis of end-of-study tumor volumes was performed using two-way repeated measures ANOVA followed by post hoc comparisons of the mean.
The PARP inhibitor niraparib was included as a comparator and dosed orally QD at a dose of 45 mg/kg.
(§1) The mice in the 50 mg/kg BID group were dosed every day whereas the mice in the […] were dosed for the first 5 days of each 7-day cycle, such that the total weekly dose was the same between these two groups. At the end of the study, tumor tissue was collected for the vehicle, 50 mg/kg BID, and 30, 50 and 100 mg/kg QD dose groups and formalin-fixed and paraffin embedded (FFPE) for γH2AX immunohistochemistry. γH2AX expression in FFPE tumor tissue was evaluated by staining and was performed using immunohistochemistry and validated antibody conditions at Histowiz (Long Island City, NY, USA). The γH2AX IHC images were then quantified in-house using QuPath software. The total number of nuclei objects per tumor section based on hematoxylin counter-staining (blue) were segmented using a Stardist algorithm and the number of γH2AX positive DAB (3,3′ Diaminobenzidine) stained cells (brown) quantified using object classification with a pre-trained random forest model based on DAB staining parameters including intensity and standard deviation.

human A1 receptor = target: T1, human A1 receptor (Homo sapiens, UniProt P30542); assay: Eurofins selectivity panel, radioligand competition binding at 10 μM
T1 construct: Eurofins (contract study)
Protocol: (§2) The inhibitory potential of Compound 1 was tested against 38 diverse non-kinase enzymes and 55 receptors, ion channels and neurotransmitter transporters in radioligand competition binding assays using mostly human recombinant proteins. […] Compound 1 was also tested against an additional panel of 468 protein kinases. Studies were performed at Eurofins (Luxembourg City, Luxembourg) using their published assay formats.

5-HT2A receptor = target: T2, 5-HT2A receptor (Homo sapiens, UniProt P28223); assay: as above
T2 construct: Eurofins (contract study)
Protocol: as §2

[2] = test system: panel of 468 protein kinases (all other kinases tested); assay: Eurofins protein kinase panel at 10 μM; assay type: biochemical
Protocol: as §2

DRYK1B = target: T3, DRYK1B (Homo sapiens, UniProt Q9Y463); assay: Eurofins protein kinase panel at 10 μM; assay type: biochemical
T3 construct: Eurofins (contract study)
Protocol: as §2

Parental SNU601 cells = assay: 6-day proliferation, nuclei count, parental line; assay type: cell-based; conditions: Homo sapiens, SNU-601, 144 h, read-out: IC50 inhibition of proliferation
Protocol: The SNU601 gastric carcinoma cell line (Creative Bioarray, Cat #CSC-C9686L) was cultured in RPMI media containing glutamax, 10% fetal bovine serum, and 1% penicillin/streptomycin at 37° C., 5% CO2. To generate a PARP inhibitor resistant cell line, an IC20 concentration of niraparib was added to the culture media.
Compound 1 and the PARP inhibitor niraparib were tested in cellular proliferation assays using the parental SNU601 cell line and the SNU601 cell line with acquired PARPi resistance. For the proliferation assays, cells were plated in 96-well plates (Corning costar 3603) at 2500-5000 cells/well in normal growth media. The next day, compound dissolved in vehicle (0.5% DMSO in media) was added to generate a 7- to 10-point concentration curve with half-log dilutions and starting concentrations of 10 or 31.6 μM. After 6 days of compound or vehicle treatment, the cells were fixed with a solution of 8% paraformaldehyde, 0.2% Triton X-100 for 20 minutes. After washing the cells with PBS, the nuclei were stained by the addition of DAPI (4′,6-diamidino-2-phenylindole) and incubation for 20 minutes. The number of nuclei in each well were counted by imaging the plates on an Image Xpress Pico automated cell imaging system (Molecular Devices). The percent proliferation after treatment was determined by normalizing the number of nuclei in treated wells to the vehicle-treated wells. […]

[3] = test system: γH2AX in HCC1428 tumor tissue; assay: γH2AX immunohistochemistry of HCC1428 xenograft tumor tissue (Study 2); assay type: in vivo, BALB/c nude mice; conditions: vehicle 2.4%
Protocol: as §1
% γH2AX positive=(#γH2AX positive nuclei/#total nuclei)*100
Statistical analysis of the γH2AX staining was conducted using Ordinary one-way ANOVA with Dunnett's multiple comparisons test and differences considered significant at a calculated probability p≤0.05.

[4] = target: T4, human recombinant PARG (AA 389-976) (Homo sapiens, UniProt Q86W56); assay: Surface plasmon resonance (SPR) direct binding
T4 construct: His-tagged human recombinant PARG (AA 389-976) was coupled to a CM5 biosensor chip; made in house; host or cells: E. coli BL21 (DE3), pET28a

[5] = test system: HBCx-34 breast cancer patient-derived xenograft; assay: HBCx-34 breast cancer PDX model; assay type: in vivo, Hsd: Athymic Nude-Foxn1nu mice; conditions: 75 or 100 mg/kg BID, at day 15, transient
Protocol: The PDX models were established by subcutaneous inoculation of HBCx-22 or HBCx-34 cells into Hsd: Athymic Nude-Foxn1nu mice. Breast tumor-bearing mice received estrogen diluted in drinking water (β-oestradiol, 8.5 mg/L) from the date of tumor inoculation until the end of the study to promote optimal growth of the ER^+ cell line. Groups of 10 animals each were established by random assignment. Tumor volumes and body weights were measured twice weekly. […] Statistical analysis of end-of-study tumor volumes was performed using the Kruskal-Wallis test with Dunn's multiple comparisons test (HBCx-34) or Brown-Forsythe test with Dunnett's T3 multiple comparisons test (HBCx-22).
Compound 1 was administered to mice orally twice daily (BID) for 42 days at a dose of 75 or 100 mg/kg based on body weight. […] Compound 1 was administered to mice orally BID for 35 days at doses of 75 or 100 mg/kg based on body weight.

T4 sequence (Q86W56 389-976): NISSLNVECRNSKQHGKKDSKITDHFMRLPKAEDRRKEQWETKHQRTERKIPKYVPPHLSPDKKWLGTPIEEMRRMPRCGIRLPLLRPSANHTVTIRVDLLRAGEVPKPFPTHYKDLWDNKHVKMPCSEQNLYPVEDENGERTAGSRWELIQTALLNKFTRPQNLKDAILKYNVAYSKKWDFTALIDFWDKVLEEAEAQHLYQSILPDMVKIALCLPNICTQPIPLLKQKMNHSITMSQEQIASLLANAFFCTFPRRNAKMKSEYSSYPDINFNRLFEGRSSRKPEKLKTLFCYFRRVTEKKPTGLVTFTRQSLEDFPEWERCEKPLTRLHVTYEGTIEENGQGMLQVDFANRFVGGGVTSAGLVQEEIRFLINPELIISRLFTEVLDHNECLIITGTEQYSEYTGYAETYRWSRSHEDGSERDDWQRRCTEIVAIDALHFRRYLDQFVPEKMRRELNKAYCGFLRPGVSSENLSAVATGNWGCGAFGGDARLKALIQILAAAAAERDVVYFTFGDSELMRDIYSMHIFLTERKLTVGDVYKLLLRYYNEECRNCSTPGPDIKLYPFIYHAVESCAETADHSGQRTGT
T3 sequence (Q9Y463 whole entry): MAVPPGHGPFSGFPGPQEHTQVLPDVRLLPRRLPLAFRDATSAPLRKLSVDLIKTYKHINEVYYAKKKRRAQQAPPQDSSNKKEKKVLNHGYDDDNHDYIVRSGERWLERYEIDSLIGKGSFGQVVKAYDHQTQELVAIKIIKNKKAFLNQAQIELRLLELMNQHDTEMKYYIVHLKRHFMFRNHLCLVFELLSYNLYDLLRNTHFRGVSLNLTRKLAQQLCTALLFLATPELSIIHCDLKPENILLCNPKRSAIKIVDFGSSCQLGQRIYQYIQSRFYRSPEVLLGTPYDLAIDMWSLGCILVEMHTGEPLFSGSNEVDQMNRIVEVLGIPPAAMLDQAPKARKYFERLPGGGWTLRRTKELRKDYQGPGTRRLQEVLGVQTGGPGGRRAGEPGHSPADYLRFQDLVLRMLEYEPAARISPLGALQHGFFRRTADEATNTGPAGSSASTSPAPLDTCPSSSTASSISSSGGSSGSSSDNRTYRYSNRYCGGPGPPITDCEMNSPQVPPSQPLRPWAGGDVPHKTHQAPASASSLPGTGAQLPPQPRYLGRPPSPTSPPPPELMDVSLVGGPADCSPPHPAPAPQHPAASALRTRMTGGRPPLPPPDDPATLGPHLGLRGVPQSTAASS
T2 sequence (P28223 whole entry): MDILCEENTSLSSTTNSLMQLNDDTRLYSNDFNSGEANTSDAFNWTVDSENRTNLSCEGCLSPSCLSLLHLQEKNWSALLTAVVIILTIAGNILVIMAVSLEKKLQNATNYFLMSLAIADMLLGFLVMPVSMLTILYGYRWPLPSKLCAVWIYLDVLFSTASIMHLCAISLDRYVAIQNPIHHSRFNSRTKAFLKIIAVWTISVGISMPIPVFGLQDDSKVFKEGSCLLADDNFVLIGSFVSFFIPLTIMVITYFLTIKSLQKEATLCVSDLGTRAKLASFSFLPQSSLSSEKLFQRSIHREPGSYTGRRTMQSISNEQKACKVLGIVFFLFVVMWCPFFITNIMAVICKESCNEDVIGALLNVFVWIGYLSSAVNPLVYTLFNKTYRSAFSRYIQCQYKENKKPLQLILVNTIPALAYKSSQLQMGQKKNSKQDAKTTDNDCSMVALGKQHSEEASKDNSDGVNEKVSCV
T1 sequence (P30542 whole entry): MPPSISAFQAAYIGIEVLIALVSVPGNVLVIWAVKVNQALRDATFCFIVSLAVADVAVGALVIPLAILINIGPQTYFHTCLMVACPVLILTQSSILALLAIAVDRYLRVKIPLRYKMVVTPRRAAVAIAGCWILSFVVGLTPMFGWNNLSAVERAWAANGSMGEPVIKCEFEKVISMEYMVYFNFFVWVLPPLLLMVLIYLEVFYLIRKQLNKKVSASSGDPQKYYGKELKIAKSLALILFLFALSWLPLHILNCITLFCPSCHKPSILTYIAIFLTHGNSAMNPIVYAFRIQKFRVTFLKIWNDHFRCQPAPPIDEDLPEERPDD

[2H]C([2H])(c1cnn(C)c1)N1C(=O)c2cc(S(=O)(=O)NC3(C)CC3)ccc2N2C1=NC[C@H]2C [Compound 1, (R)-1-methyl-4-((1-methyl-1H-pyrazol-4-yl)methyl-d2)-N-(1-methylcyclopropyl)-5-oxo-1,2,4,5-tetrahydroimidazo[1,2-a]quinazoline-7-sulfonamide]
mean body loss over the treatment period ([1]; Study 1, 75 mg/kg BID): < 4% | mean body weight change over the treatment period ([1]; Study 1, 100 mg/kg QD): mean body weight increase | % TGI ([1]; Study 2, 10 mg/kg QD oral): 26% TGI | % TGI ([1]; Study 2, 30 mg/kg QD oral): 35% TGI | mean body weight loss during the treatment period ([1]; Study 2, all dose groups): ≤ 2% | inhibition at 10 µM (human A1 receptor): 67% | inhibition at 10 µM (5-HT2A receptor): 64% | % inhibition [2]: < 50% | inhibition at 10 µM (DRYK1B): 51% | IC50 (Parental SNU601 cells): 210 nM | % γH2AX positive cells in tumor tissue ([3]; 30 mg/kg QD): 3.7% +/− 0.4 | % γH2AX positive cells in tumor tissue ([3]; 50 mg/kg BID): 6.8% +/− 0.4 | % γH2AX positive cells in tumor tissue ([3]; 50 mg/kg QD): 4.2% +/− 0.3 | % γH2AX positive cells in tumor tissue ([3]; 100 mg/kg QD): 5.9% +/− 0.5 | Kd ([4]; SPR kinetic KD, 1:1 binding, 25° C., mean n=2): 1.1 nM | Rmax (Relative Units) ([4]; relative amount of PARG bound by Compound 1): 15.9 Relative Units | Theoretical Rmax ([4]; total amount of PARG immobilized on the biosensor chip): 19.8 | maximum decrease in body weight [5]: approximately 11%
